Experimental data from PMC11215778 (Journal of Medicinal Chemistry, 2024).
Where two headings read alike, the source gives them in different places.

Experiments:
[1] = Plasma stability assay, human plasma; assay type: in vitro ADME; settings: pooled plasma, read-out: Plasma stability % remaining at 6 h, hum
Protocol: […] The reactions were terminated by adding 4 vol of ice-cold methanol, and the samples were then mixed vigorously, frozen at −20 °C for 1 h, and left overnight at 8 °C. After that, the samples were centrifuged, and the supernatant was analyzed by means of LC–MS/MS Sciex 6500 triple quadrupole (Sciex, Framingham, MA, USA). Zero time points were prepared by adding ice-cold methanol to the compound prior to the addition of the plasma.

[2] = Plasma stability assay, rat plasma; assay type: in vitro ADME
[3] = Cytotoxicity assay (CellTiter-Glo) on normal human dermal fibroblasts; assay type: cell-based; settings: normal human dermal fibroblasts (NHDF)
Protocol: The cytotoxicity of the compounds was evaluated in nontumor normal human dermal fibroblasts (NHDF) purchased from ATCC (PCS-201-012, Manassas, VA, USA). The cells were negatively tested for the presence of mycoplasma (cat. #: LT07-318 MycoAlert Mycoplasma Detection kit, Lonza). The cells were cultivated in DMEM high glucose 4.5 g/L medium (cat. #: R8758, Merck, Germany). The medium was supplemented with 10% fetal bovine serum (cat. #: F7524, Merck, Germany; inactivated at 56 °C for 30 min) and 1.0% of L-glutamine (cat. #: G7513, Merck, Germany) without antibiotics. Cells were seeded in 384-well format white micro plates (cat. #: 164610, Nunc, Thermo Fisher Scientific, USA) at a concentration of 60,000 cells per mL and left to rest overnight. Next day, 1 and 10 μM concentrations of the tested compounds were added in triplicates. The cells were cultivated at 37 °C and 5% CO2 for 72 h after which a luminescent cell viability assay (CellTiter-Glo 2.0, cat. #: Promega, Madison, USA) was added. The plate was left on a shaker (350 rpm) in the dark for 20 min at RT. Luminescence was measured by a Spark multimode reader from Tecan (Tecan Group Ltd., Switzerland). The signal of the compound-treated cells was related to the value of the untreated control, which was arbitrarily set to 100% viability.

in vitro = in vitro ADME; settings: human, Caco-2; for Papp A→B at 3 h, 5 µM: read-out: Caco-2 permeability Papp A–B
Protocol: A Transwell system consisting of two compartments separated by a monolayer of differentiated Caco-2 cells was employed for the intestinal permeability evaluation. Thanks to the ability of Caco-2 cells to become polarized, bidirectional transport (A–B and B–A) could be measured and the efflux ratio calculated.
The transepithelial bidirectional transport of tested compounds (5 μM, pH 7.4/7.4) across the Caco-2 monolayers was studied using the BD BioCoat HTS Caco-2 assay system (BD Biosciences, Bedford, MA) as described in detail elsewhere.[47] Aliquots were collected from the donor and acceptor compartment at the end of the transport period (3 h), the integrity of monolayers was verified using Lucifer Yellow dye, and the compounds were quantified using LC–MS/MS (Triple Quad 6500+, Sciex). The apparent permeability coefficient (Papp) was calculated from the following equation: Papp = (dQ/dt)/C0 × A, where dQ/dt is the rate of absorption of the drug across the cells, C0 is the donor compartment concentration at time zero, and A is the area of the monolayer. The efflux ratio was expressed as (Papp B–A)/(Papp A–B). Recovery (%) was determined as (total compound mass in donor and receiver compartments at the end of the incubation/initial compound mass in the donor compartment) × 100.

[4] = Microsomal stability, human liver microsomes; assay type: in vitro ADME; settings: pooled liver microsomes, pH 7.4; human liver microsomes 0.5 mg/mL, 10 μM compound; read-out: Microsomal stability CLint, hum
Protocol: (§1) . Zero time points were prepared by adding ice-cold methanol to a mixture of the compound with cofactors prior to the addition of microsomes. […]. Intrinsic clearance (CLint) was calculated using the following formula: [drawing 1] where V = incubation volume per milligram of microsomal protein (μL/mg) and t1/2 = microsomal half-life.

[5] = Microsomal stability, rat liver microsomes; assay type: in vitro ADME; settings: pH 7.4; rat liver microsomes
Protocol: as §1

[6] = 10 uM, read-out: NHDF viability at 10 uM (supplement csv)
[7] = 10 μM, untreated control = 100%, read-out: NHDF Viability 10 μM

Row | SMILES | remaining at 6 h, 5 μM ([1]; human plasma, 5 μM, 37 °C) [%] | remaining at 6 h, 5 μM [2] [%] | recovery at 3 h, 5 µM (in vitro) [%] | Papp A→B at 3 h, 5 µM (in vitro; 5 μM, pH 7.4/7.4, 3 h) [×10⁻⁶ cm/s] | Papp B→A at 3 h, 5 µM (in vitro; 5 μM, pH 7.4/7.4, 3 h, read-out: Caco-2 permeability Papp B–A) [×10⁻⁶ cm/s] | microsomal CLint at 10 µM [4] [µL/min/mg] | microsomal CLint at 10 µM [5] [µL/min/mg] | remaining at 6 h, 5 μM ([1]; human) [%] | viability at 72 h, 1 µM [3] [%] | viability at 72 h, 10 µM [3, 6] [%] | viability at 72 h, 10 µM [3, 7] [%]
1 | O=C(OC[C@@H]1CCCN1)[C@@H]1[C@H]2C[C@H]3c4[nH]c5ccccc5c4CCN3C[C@@H]2CC[C@@H]1O [Compound 4b, 17-α-Hydroxyyohimban-16-α-carboxylic acid (S)-Pyrrolidin-2-ylmethyl Ester] |  |  |  |  |  |  |  |  | 112 | 103 | 103
2 | O=C(OC1CCNCC1)[C@@H]1[C@H]2C[C@H]3c4[nH]c5ccccc5c4CCN3C[C@@H]2CC[C@@H]1O [Compound 4d, 17-α-Hydroxyyohimban-16-α-carboxylic Acid Piperidine-4-yl Ester] | 100 ± 1 | 87 | 101 | 1 | 2 |  |  |  | 107 | 104 | 104
3 | O=C(OC1CCCNC1)[C@@H]1[C@H]2C[C@H]3c4[nH]c5ccccc5c4CCN3C[C@@H]2CC[C@@H]1O (stereo partly drawn) [Compound 4e, 17-α-Hydroxyyohimban-16-α-carboxylic Acid Piperidine-3-yl Ester] |  |  |  |  |  |  |  |  | 84 | 82 | 82
4 | O=C(OCC1CNC1)[C@@H]1[C@H]2C[C@H]3c4[nH]c5ccccc5c4CCN3C[C@@H]2CC[C@@H]1O [Compound 4f, 17-α-Hydroxyyohimban-16-α-carboxylic Acid Azetidin-3-ylmethyl Ester] |  |  |  |  |  |  |  |  | 119 | 119 | 119
5 | O=C(OC[C@@H]1CCN1)[C@@H]1[C@H]2C[C@H]3c4[nH]c5ccccc5c4CCN3C[C@@H]2CC[C@@H]1O [Compound 4h, 17-α-Hydroxyyohimban-16-α-carboxylic acid (S)-Azetidin-2-ylmethyl Ester] |  |  |  |  |  |  |  |  | 116 | 118 | 118
6 | N[C@H]1C[C@@H](OC(=O)[C@@H]2[C@H]3C[C@H]4c5[nH]c6ccccc6c5CCN4C[C@@H]3CC[C@@H]2O)C1 [Compound 4o, 17-α-Hydroxyyohimban-16-α-carboxylic Acid cis-3-Aminocyclobutyl Ester] | 97 ± 5 | 75 | 101 | 1 |  | 2 ± 1 | 3 |  | 84 | 86 | 86
7 | O=C(N[C@H]1CCNC1)[C@@H]1[C@H]2C[C@H]3c4[nH]c5ccccc5c4CCN3C[C@@H]2CC[C@@H]1O [Compound 5a, 17-α-Hydroxyyohimban-16-α-carboxylic Acid (S)-N-(Pyrrolidin-3-yl)amide] |  | 114 ± 2 |  |  |  |  |  | 100 ± 1 | 90 | 88 | 88
8 | O=C(NC1CNC1)[C@@H]1[C@H]2C[C@H]3c4[nH]c5ccccc5c4CCN3C[C@@H]2CC[C@@H]1O [Compound 5b, 17-α-Hydroxyyohimban-16-α-carboxylic Acid N-(Azetidin-3-yl)amide] |  |  |  |  |  |  |  |  | 88 | 88 | 88

Now from value to molecule, other results behind:

Row | remaining at 6 h, 5 μM ([1]; human plasma, 5 μM, 37 °C) [%] | remaining at 6 h, 5 μM [2] [%] | recovery at 3 h, 5 µM (in vitro) [%] | Papp A→B at 3 h, 5 µM (in vitro; 5 μM, pH 7.4/7.4, 3 h) [×10⁻⁶ cm/s] | Papp B→A at 3 h, 5 µM (in vitro; 5 μM, pH 7.4/7.4, 3 h, read-out: Caco-2 permeability Papp B–A) [×10⁻⁶ cm/s] | microsomal CLint at 10 µM [4] [µL/min/mg] | microsomal CLint at 10 µM [5] [µL/min/mg] | remaining at 6 h, 5 μM ([1]; human) [%] | SMILES | viability at 72 h, 1 µM [3] [%] | viability at 72 h, 10 µM [3, 6] [%] | viability at 72 h, 10 µM [3, 7] [%]
9 | 88 | 68 |  |  |  |  |  |  | O=C(OC[C@H]1CCCN1)[C@@H]1[C@H]2C[C@H]3c4[nH]c5ccccc5c4CCN3C[C@@H]2CC[C@@H]1O [Compound 4a, 17-α-Hydroxyyohimban-16-α-carboxylic acid (R)-Pyrrolidin-2-ylmethyl Ester] | 113 | 106 | 106
10 | 91 ± 5 | 80 ± 1 |  |  |  |  |  |  | CNCCOC(=O)[C@@H]1[C@H]2C[C@H]3c4[nH]c5ccccc5c4CCN3C[C@@H]2CC[C@@H]1O [Compound 4c, 17-α-Hydroxyyohimban-16-α-carboxylic Acid 2-(Methylamino)ethyl Ester] | 104 | 91 | 91
11 | 118 ± 3 | 134 ± 1 |  |  |  | 4 ± 1 | 1 ± 1 |  | O=C(OC[C@H]1CCN1)[C@@H]1[C@H]2C[C@H]3c4[nH]c5ccccc5c4CCN3C[C@@H]2CC[C@@H]1O [Compound 4g, 17-α-Hydroxyyohimban-16-α-carboxylic Acid (R)-Azetidin-2-ylmethyl Ester] | 120 | 120 | 120
12 | 88 ± 3 | 62 ± 7 |  |  |  | 4 ± 1 | 1 ± 1 |  | O=C(OC[C@@H]1CCNC1)[C@@H]1[C@H]2C[C@H]3c4[nH]c5ccccc5c4CCN3C[C@@H]2CC[C@@H]1O [Compound 4i, 17-α-Hydroxyyohimban-16-α-carboxylic Acid (R)-Pyrrolidin-3-ylmethyl Ester] | 109 | 107 | 107
13 | 92 | 76 ± 3 |  |  |  | 2 | 1 ± 1 |  | O=C(OC[C@H]1CCNC1)[C@@H]1[C@H]2C[C@H]3c4[nH]c5ccccc5c4CCN3C[C@@H]2CC[C@@H]1O [Compound 4j, 17-α-Hydroxyyohimban-16-α-carboxylic Acid (S)-Pyrrolidin-3-ylmethyl Ester] | 104 | 102 | 102
14 | 95 ± 5 | 110 ± 3 | 101 | 1 |  | 3 ± 2 | 1 ± 1 |  | O=C(O[C@@H]1CCNC1)[C@@H]1[C@H]2C[C@H]3c4[nH]c5ccccc5c4CCN3C[C@@H]2CC[C@@H]1O [Compound 4k, 17-α-Hydroxyyohimban-16-α-carboxylic Acid (R)-Pyrrolidin-3-yl Ester] | 99 | 91 | 91
15 | 100 | 80 ± 1 | 112 | 1 |  |  |  |  | O=C(O[C@H]1CCNC1)[C@@H]1[C@H]2C[C@H]3c4[nH]c5ccccc5c4CCN3C[C@@H]2CC[C@@H]1O [Compound 4l, 17-α-Hydroxyyohimban-16-α-carboxylic Acid (S)-Pyrrolidin-3-yl Ester] | 100 | 94 | 94
16 | 100 ± 3 | 70 ± 2 | 101 | 1 |  | 3 ± 2 |  |  | O=C(OC1CNC1)[C@@H]1[C@H]2C[C@H]3c4[nH]c5ccccc5c4CCN3C[C@@H]2CC[C@@H]1O [Compound 4m, 17-α-Hydroxyyohimban-16-α-carboxylic Acid Azetidin-3-yl Ester] | 77 | 77 | 77
